Measured values as given in ChEMBL document CHEMBL3390848, “Affinity selection and sequence-activity relationships of HIV-1 membrane fusion inhibitors directed at the drug-resistant variants” (Medchemcomm, 2010).
Residues, ends and D or L forms follow the SMILES beside them.

Legend:
[1] = tested on: Human immunodeficiency virus 1; test: Antiviral activity against HIV1 NL4-3 harboring gp41 D36G mutant infected in human HeLa cells expressing CD4-LTR-beta-gal assessed as inhibition of viral replication after 48 hrs by MAGI assay; type: functional, organism-based
[2] = tested on: Human immunodeficiency virus 1; test: Binding affinity to HIV1 His-tagged N-terminal heptad repeat of envelope glycoprotein gp41 assessed as recovery of N54-drug complex after 2 hrs by LC-MS analysis; design: concentration or dose not given beside the values
[3] = tested on: Human immunodeficiency virus 1; test: Thermal stability of HIV1 envelope glycoprotein gp41 His-tagged N-terminal heptad repeat N54-drug complex assessed as thermal unfolding transition state by measuring molar ellipticity at 4 to 90 degC by circular dichroic spectra analysis
[4] = tested on: Envelope glycoprotein gp160 (Human immunodeficiency virus 1), Q72502 [V38A]; test: Binding affinity to HIV1 His-tagged N-terminal heptad repeat of envelope glycoprotein gp41 assessed as recovery of N54 V38A mutant-drug complex after 2 hrs by LC-MS analysis; design: concentration or dose not given beside the values
[5] = tested on: Human immunodeficiency virus 1; test: Binding affinity to HIV1 His-tagged N-terminal heptad repeat of envelope glycoprotein gp41 assessed as recovery of N54 N43D mutant-drug complex after 2 hrs by LC-MS analysis; design: concentration or dose not given beside the values
[6] = tested on: Envelope glycoprotein gp160 (Human immunodeficiency virus 1), Q72502 [V38A]; test: Thermal stability of HIV1 envelope glycoprotein gp41 His-tagged N-terminal heptad repeat N54 V38A mutant-drug complex assessed as thermal unfolding transition state by measuring molar ellipticity at 4 to 90 degC by circular dichroic spectra analysis
[7] = tested on: Human immunodeficiency virus 1; test: Thermal stability of HIV1 envelope glycoprotein gp41 His-tagged N-terminal heptad repeat N54 N43D mutant-drug complex assessed as thermal unfolding transition state by measuring molar ellipticity at 4 to 90 degC by circular dichroic spectra analysis
[8] = tested on: Human immunodeficiency virus 1; test: Binding affinity to HIV1 His-tagged N-terminal heptad repeat of envelope glycoprotein gp41 assessed as recovery of N36-drug complex at 10 uM after 2 hrs by LC-MS analysis
[9] = tested on: Human immunodeficiency virus 1; test: Binding affinity to HIV1 His-tagged N-terminal heptad repeat of envelope glycoprotein gp41 assessed as recovery of N36-drug complex at 6 uM after 2 hrs by LC-MS analysis
[10] = tested on: Human immunodeficiency virus 1; test: Binding affinity to HIV1 His-tagged N-terminal heptad repeat of envelope glycoprotein gp41 assessed as recovery of N36-drug complex at 1 uM after 2 hrs by LC-MS analysis
[11] = tested on: Human immunodeficiency virus 1; test: Binding affinity to HIV1 His-tagged N-terminal heptad repeat of envelope glycoprotein gp41 assessed as recovery of N36-drug complex at 0.6 uM after 2 hrs by LC-MS analysis
[12] = tested on: Human immunodeficiency virus 1; test: Thermal stability of HIV1 envelope glycoprotein gp41 His-tagged N-terminal heptad repeat N36-drug complex assessed as thermal unfolding transition state by measuring molar ellipticity at 4 to 90 degC by circular dichroic spectra analysis

Compound	EC50 [1]	Activity [2]	Tm [3]	Activity [4]	Activity [5]	Tm [6]	Tm [7]	Activity [8]	Activity [9]	Activity [10]	Activity [11]	Tm [12]
CC[C@H](C)[C@H](NC(=O)[C@H](CC(C)C)NC(=O)[C@H](CCC(=O)O)NC(=O)[C@H](CCC(=O)O)NC(=O)[C@@H](NC(=O)[C@H](CC(C)C)NC(=O)[C@H](CO)NC(=O)[C@@H](NC(=O)[C@H](Cc1ccc(O)cc1)NC(C)=O)[C@@H](C)O)[C@@H](C)CC)C(=O)N[C@@H](CCCCN)C(=O)N[C@@H](CCCCN)C(=O)N[C@@H](C)C(=O)N[C@@H](CCC(=O)O)C(=O)N[C@@H](CCC(=O)O)C(=O)N[C@@H](CCC(N)=O)C(=O)N[C@@H](CCC(N)=O)C(=O)N[C@@H](CCCCN)C(=O)N[C@@H](CCCCN)C(=O)N[C@@H](CC(N)=O)C(=O)N[C@@H](CCC(=O)O)C(=O)N[C@@H](CCC(=O)O)C(=O)N[C@@H](CCC(=O)O)C(=O)N[C@@H](CC(C)C)C(=O)N[C@@H](CCCCN)C(=O)N[C@@H](CCCCN)C(=O)N[C@@H](CC(C)C)C(=O)N[C@@H](CCC(=O)O)C(=O)N[C@@H](CCC(=O)O)C(=O)N[C@@H](Cc1c[nH]c2ccccc12)C(=O)N[C@@H](C)C(=O)N[C@@H](CCCCN)C(=O)N[C@@H](CCCCN)C(=O)N[C@@H](Cc1c[nH]c2ccccc12)C(=O)N[C@@H](CC(N)=O)C(=O)N[C@@H](Cc1c[nH]c2ccccc12)C(=O)N[C@@H](Cc1ccccc1)C(N)=O (Ac-YTSLIEELIKKAEEQQKKNEEELKKLEEWAKKWNWF-NH2)	0.3 nM	10%	80.1 °C	10%	10.2%	64.6 °C	71.9 °C					
CC[C@H](C)[C@H](NC(=O)[C@H](CC(C)C)NC(=O)[C@H](CCC(=O)O)NC(=O)[C@H](CCC(=O)O)NC(=O)[C@@H](NC(=O)[C@H](CC(C)C)NC(=O)[C@H](CO)NC(=O)[C@@H](NC(=O)[C@H](Cc1ccc(O)cc1)NC(C)=O)[C@@H](C)O)[C@@H](C)CC)C(=O)N[C@@H](CCCCN)C(=O)N[C@@H](CCCCN)C(=O)N[C@@H](Cc1c[nH]c2ccccc12)C(=O)N[C@@H](CCC(=O)O)C(=O)N[C@@H](CCC(=O)O)C(=O)N[C@@H](CCC(N)=O)C(=O)N[C@@H](CCC(N)=O)C(=O)N[C@@H](CCCCN)C(=O)N[C@@H](CCCCN)C(=O)N[C@@H](CC(N)=O)C(=O)N[C@@H](CCC(=O)O)C(=O)N[C@@H](CCC(=O)O)C(=O)N[C@@H](CCC(=O)O)C(=O)N[C@@H](CC(C)C)C(=O)N[C@@H](CCCCN)C(=O)N[C@@H](CCCCN)C(=O)N[C@@H](CC(C)C)C(=O)N[C@@H](CCC(=O)O)C(=O)N[C@@H](CCC(=O)O)C(=O)N[C@@H](Cc1c[nH]c2ccccc12)C(=O)N[C@@H](C)C(=O)N[C@@H](CCCCN)C(=O)N[C@@H](CCCCN)C(=O)N[C@@H](Cc1c[nH]c2ccccc12)C(=O)N[C@@H](CC(N)=O)C(=O)N[C@@H](Cc1c[nH]c2ccccc12)C(=O)N[C@@H](Cc1ccccc1)C(N)=O (Ac-YTSLIEELIKKWEEQQKKNEEELKKLEEWAKKWNWF-NH2)	20 nM	5.2%	62 °C	7.7%	7.6%	53.2 °C	61.4 °C					
CC[C@H](C)[C@H](NC(=O)[C@H](CC(C)C)NC(=O)[C@H](CCC(=O)O)NC(=O)[C@H](CCC(=O)O)NC(=O)[C@@H](NC(=O)[C@H](CC(C)C)NC(=O)[C@H](CO)NC(=O)[C@@H](NC(=O)[C@H](Cc1ccc(O)cc1)NC(C)=O)[C@@H](C)O)[C@@H](C)CC)C(=O)N[C@@H](CCCCN)C(=O)N[C@@H](CCCCN)C(=O)N[C@@H](CC(C)C)C(=O)N[C@@H](CCC(=O)O)C(=O)N[C@@H](CCC(=O)O)C(=O)N[C@@H](CCC(N)=O)C(=O)N[C@@H](CCC(N)=O)C(=O)N[C@@H](CCCCN)C(=O)N[C@@H](CCCCN)C(=O)N[C@@H](CC(N)=O)C(=O)N[C@@H](CCC(=O)O)C(=O)N[C@@H](CCC(=O)O)C(=O)N[C@@H](CCC(=O)O)C(=O)N[C@@H](CC(C)C)C(=O)N[C@@H](CCCCN)C(=O)N[C@@H](CCCCN)C(=O)N[C@@H](CC(C)C)C(=O)N[C@@H](CCC(=O)O)C(=O)N[C@@H](CCC(=O)O)C(=O)N[C@@H](Cc1c[nH]c2ccccc12)C(=O)N[C@@H](C)C(=O)N[C@@H](CCCCN)C(=O)N[C@@H](CCCCN)C(=O)N[C@@H](Cc1c[nH]c2ccccc12)C(=O)N[C@@H](CC(N)=O)C(=O)N[C@@H](Cc1c[nH]c2ccccc12)C(=O)N[C@@H](Cc1ccccc1)C(N)=O (Ac-YTSLIEELIKKLEEQQKKNEEELKKLEEWAKKWNWF-NH2)	0.4 nM	10.4%	77.6 °C	10.1%	10.8%	57.5 °C	74 °C					
CC[C@H](C)[C@H](NC(=O)[C@H](CC(C)C)NC(=O)[C@H](CCC(=O)O)NC(=O)[C@H](CCC(=O)O)NC(=O)[C@@H](NC(=O)[C@H](CCCCN)NC(=O)[C@H](CCCCN)NC(=O)[C@@H](NC(=O)[C@H](Cc1ccc(O)cc1)NC(=O)[C@H](CCC(=O)O)NC(=O)[C@H](CCC(=O)O)NC(=O)[C@@H](NC(=O)[C@H](CCCCN)NC(=O)[C@H](CCCCN)NC(=O)[C@H](CC(=O)O)NC(=O)[C@H](Cc1c[nH]c2ccccc12)NC(=O)[C@H](CCC(=O)O)NC(=O)[C@H](CCC(=O)O)NC(=O)[C@H](Cc1c[nH]c2ccccc12)NC(C)=O)[C@@H](C)CC)[C@@H](C)O)[C@@H](C)CC)C(=O)N[C@@H](CCCCN)C(=O)N[C@@H](CCCCN)C(=O)N[C@@H](CCCNC(=N)N)C(=O)N[C@@H](CCC(=O)O)C(=O)N[C@@H](CCC(=O)O)C(=O)N[C@@H](CCC(N)=O)C(=O)N[C@@H](CCC(N)=O)C(=O)N[C@@H](CCCCN)C(=O)N[C@@H](CCCCN)C(=O)N[C@@H](CC(N)=O)C(=O)N[C@@H](CCC(=O)O)C(=O)N[C@@H](CCC(=O)O)C(=O)N[C@@H](CCC(=O)O)C(=O)N[C@@H](CC(C)C)C(=O)N[C@@H](CCCCN)C(=O)N[C@@H](CCCCN)C(N)=O (Ac-WEEWDKKIEEYTKKIEELIKKREEQQKKNEEELKK-NH2)	280 nM							0.3%	0.1%	0%	2.5%	52.3 °C
CC[C@H](C)[C@H](NC(=O)[C@H](CC(C)C)NC(=O)[C@H](CCC(=O)O)NC(=O)[C@H](CCC(=O)O)NC(=O)[C@@H](NC(=O)[C@H](CCCCN)NC(=O)[C@H](CCCCN)NC(=O)[C@@H](NC(=O)[C@H](Cc1ccc(O)cc1)NC(=O)[C@H](CCC(=O)O)NC(=O)[C@H](CCC(=O)O)NC(=O)[C@@H](NC(=O)[C@H](CCCCN)NC(=O)[C@H](CCCCN)NC(=O)[C@H](CC(=O)O)NC(=O)[C@H](Cc1c[nH]c2ccccc12)NC(=O)[C@H](CCC(=O)O)NC(=O)[C@H](CCC(=O)O)NC(=O)[C@H](Cc1c[nH]c2ccccc12)NC(C)=O)[C@@H](C)CC)[C@@H](C)O)[C@@H](C)CC)C(=O)N[C@@H](CCCCN)C(=O)N[C@@H](CCCCN)C(=O)N[C@@H](CCC(N)=O)C(=O)N[C@@H](CCC(=O)O)C(=O)N[C@@H](CCC(=O)O)C(=O)N[C@@H](CCC(N)=O)C(=O)N[C@@H](CCC(N)=O)C(=O)N[C@@H](CCCCN)C(=O)N[C@@H](CCCCN)C(=O)N[C@@H](CC(N)=O)C(=O)N[C@@H](CCC(=O)O)C(=O)N[C@@H](CCC(=O)O)C(=O)N[C@@H](CCC(=O)O)C(=O)N[C@@H](CC(C)C)C(=O)N[C@@H](CCCCN)C(=O)N[C@@H](CCCCN)C(N)=O (Ac-WEEWDKKIEEYTKKIEELIKKQEEQQKKNEEELKK-NH2)	2.4 nM							0.9%	0.5%	2.1%	6.1%	65.9 °C
CC[C@H](C)[C@H](NC(=O)[C@H](CCCCN)NC(=O)[C@H](CCCCN)NC(=O)[C@H](CC(=O)O)NC(=O)[C@H](Cc1c[nH]c2ccccc12)NC(=O)[C@H](CCC(=O)O)NC(=O)[C@H](CCC(=O)O)NC(=O)[C@H](Cc1c[nH]c2ccccc12)NC(C)=O)C(=O)N[C@@H](CCC(=O)O)C(=O)N[C@@H](CCC(=O)O)C(=O)N[C@@H](Cc1ccc(O)cc1)C(=O)N[C@H](C(=O)N[C@@H](CCCCN)C(=O)N[C@@H](CCCCN)C(=O)N[C@H](C(=O)N[C@@H](CCC(=O)O)C(=O)N[C@@H](CCC(=O)O)C(=O)N[C@@H](CC(C)C)C(=O)N[C@H](C(=O)N[C@@H](CCCCN)C(=O)N[C@@H](CCCCN)C(=O)N[C@H](C(=O)N[C@@H](CCC(=O)O)C(=O)N[C@@H](CCC(=O)O)C(=O)N[C@@H](CCC(N)=O)C(=O)N[C@@H](CCC(N)=O)C(=O)N[C@@H](CCCCN)C(=O)N[C@@H](CCCCN)C(=O)N[C@@H](CC(N)=O)C(=O)N[C@@H](CCC(=O)O)C(=O)N[C@@H](CCC(=O)O)C(=O)N[C@@H](CCC(=O)O)C(=O)N[C@@H](CC(C)C)C(=O)N[C@@H](CCCCN)C(=O)N[C@@H](CCCCN)C(N)=O)[C@@H](C)CC)[C@@H](C)CC)[C@@H](C)CC)[C@@H](C)O (Ac-WEEWDKKIEEYTKKIEELIKKIEEQQKKNEEELKK-NH2)	1.3 nM							4.7%	7.6%	11.3%	6.9%	84.6 °C
